pIC50, pKd: −log10 of the molar value. Like-named read-outs stand apart in the source and are kept apart here.

The target in assay [1] is muscarinic acetylcholine receptors. Nature of the assay: inhibition of specific binding of ^3 H-Oxotremorine-M (^3 H-Oxo) in rat cortex. The note with it: rat cortical receptors; 1.0 nM radioligand, 25° C., 30 min. An excerpt: Furthermore, the pharmacological properties of the compounds of the invention can also be illustrated by determining their capability to inhibit the specific binding of ^3 H-Oxotremorine-M (^3 H-Oxo). Birdsdall N. J. M., Hulme E. C., and Burgen A. S. V. (1980). "The Character of Muscarinic Receptors in Different Regions of the Rat Brain". Proc. Roy. Soc. London (Series B) 207,1.
^3 H-Oxo labels muscarinic receptor in the CNS (with a preference for agonist domains of the receptors). Three different sites are labelled by ^3 H-Oxo. […] Using the present experimental conditions only the high and medium affinity sites are determined.
The inhibitory effects of compounds on ^3 H-Oxo binding reflects the affinity for muscarinic acetylcholine receptors.
All preparations are performed at 0-4° C. unless otherwise indicated. Fresh cortex (0.1-1 g) from male Wistar rats (150-250 g) is homogenized for 5-10 s in 10 ml 20 mM Hepes pH: 7.4, with an Ultra-Turrax homogenizer. The homogenizer is rinsed with 10 ml of buffer and the combined suspension centrifuged for 15 min. at 40,000×g. The pellet is washed three times with buffer. In each step the pellet is homogenized as before in 2×10 ml of buffer and centrifuged for 10 min. at 40,000×g.
The final pellet is homogenized in 20 mM Hepes pH: 7.4 (100 ml per g of original tissue) and used for binding assay. Aliquots of 0.5 ml is added 25 μl of test solution and 25 μl of ^3 H-Oxotremorine (1.0 nM, final concentration) mixed and incubated for 30 min. at 25° C. Non-specific binding is determined in triplicate using arecoline (1 μg/ml, final concentration) as the test substance. After incubation samples are added 5 ml of ice-cold buffer and poured directly onto Whatman GF/C glass fiber filters under suction and immediately washed 2 times with 5 ml of ice-cold buffer. The amount of radioactivity on the filters are determined by conventional liquid scintillation counting. Specific binding is total binding minus non specific binding.
Test substances are dissolved in 10 ml water (if necessary heated on a steam-bath for less than 5 min.) at a concentration of 2.2 mg/ml. 25-75% inhibition of specific binding must be obtained before calculation of IC50. The test value will be given as IC50 (the concentration (nM) of the test substance which inhibits the specific binding of ^3 H-Oxo by 50%).
IC50 =(applied test substance concentration)×(Cx /Co
where Co is specific binding in control assays and Cx is the specific binding in the test assay. (The calculations assume normal mass-action kinetics).
Table I illustrates the affinity of the compounds of the present invention for nicotinic and muscarinic receptors as determined by ^3 H-MCC and ^3 H-Oxo binding to rat cortical receptors. […]

The subject of assay [2] is nicotinic acetylcholine receptors. Kind of assay: inhibition of specific binding of ^3 H-methylcarbamylcholine (^3 H-MCC) in rat brain tissue. The settings on record: rat cortical receptors; for Oxo/MCC Ratio: IC50 ^3 H-Oxo / IC50 ^3 H-MCC; for pIC50: ^3 H-MCC 2 nM, 0° C., 60 min. The source says: The pharmacological properties of the compounds of the invention can be illustrated by determining their capability to inhibit the specific binding of ^3 H-methylcarbamylcholine (^3 H-MCC) (Abood and Grassi, Biochem. Pharmacol., Vol. 35, pp. 4199-4202, (1986)).
^3 H-MCC labels the nicotinic receptors in the CNS. The inhibitory effect on ^3 H-MCC binding reflects the affinity for nicotinic acetylcholine receptors.
Fresh or frozen rat, brain tissue (hippocampus or cortex) was homogenized in assay buffer (50 mM Tris-HCl, pH 7.4, 120 mM NaCl, 5 mM KCl, 2 mM CaCl2, 1 mM MgCl2) and centrifuged for 10 min. at 40.000×g. Pellets were subsequently reconstituted in assay buffer and an appropriate amount of tissue sample was mixed in tubes with ^3 H-methylcarbamylcholine (NEN, NET-951; final concentration 2 nM) and test drug. The tubes were incubated at 0° C. for 60 min. Unbound ligand was separated from bound ligand by vacuum filtration through GF/B filters presoaked in 0.5 % polyethylenimine. Filters were washed three times with 5 ml wash buffer (50 mM Tris-HCl, pH 7.4) and transferred to vials. 4 ml scintillation fluid was added and the radioactivity was measured by scintillation counting. Unspecific binding was measured with 10 μM nicotine.
The IC50 values of the test compounds were determined by nonlinear regression analyses (GraphPad InPlot).
Table I illustrates the affinity of the compounds of the present invention for nicotinic and muscarinic receptors as determined by ^3 H-MCC and ^3 H-Oxo binding to rat cortical receptors. The compounds, however, show selective affinity for nicotinic receptors as compared to muscarinic receptors, i.e OXO/MCC>1.

Assay [3] has as its target muscarinic acetylcholine receptors. The note with it: read-out: affinity of site labelled by ^3 H-Oxo, cited from earlier work.
In a further assay the test system is cognitive function. The settings on record: age related; cited from earlier work.
Assay [4] relates to attention and memory. The settings on record: healthy humans; cited from earlier work.
The test system of the next assay is Tourette's syndrome. The settings on record: in vivo; cited from earlier work.
The test system of assay [5] is attention and memory. The settings on record: Alzheimer's disease patients; cited from earlier work.
A further assay concerns dopamine release. The settings on record: nucleus accumbens compared with striatum; cited from earlier work.
The test system of a further assay is dopaminergic effects. The note with it: various behavioral models; cited from earlier work.
A further assay relates to prefrontal neurons. The settings on record: cited from earlier work.
A further assay concerns substantia nigra. The settings on record: chronic nicotine; lesioning; cited from earlier work.

By pIC50 is commonly meant the negative decadic logarithm of the IC50, by convention in mol/L. For the compound `CNc1oncc1C1=CCCN(C)C1.O=C(O)C(=O)O` [Compound 3, 3-(5-methylamino-4-isoxazolyl)-1,2,5,6-tetrahydro-1-methylpyridine oxalate], the negative logarithm of the IC50 (pIC50) in assay [1] was 5.36; in assay [2], 6.64. Further, the “Oxo/MCC Ratio” value in assay [2] is reported as 19.

On to `CCNc1oncc1C1=CCCN(C)C1.O=C(O)C(=O)O` [Compound 5, 3-(5-ethylamino-4-isoxazolyl)-1,2,5,6-tetrahydro-1-methylpyridine oxalate], for which the pIC50 in assay [1] was 5.85; in [2] it was 7.21. The “Oxo/MCC Ratio” value in assay [2] turned out to be 23.

In assay [1], `CCCNc1oncc1C1=CCCN(C)C1.O=C(O)C(=O)O` [Compound 7, 3-(5-Propylamino-4-isoxazolyl)-1,2,5,6-tetrahydro-1-methylpyridine oxalate] gave a pIC50 of 5.28. Moreover, in assay [2], the “Oxo/MCC Ratio” value is 130 and the negative logarithm of the IC50 (pIC50) was 7.40.

In assay [1], `CN1CCC=C(c2cnoc2NCc2ccccc2)C1.O=C(O)C(=O)O` [Compound 14, 3-(5-Benzylamino-4-isoxazolyl)-1,2,5,6-tetrahydro-1-methylpyridine oxalate] showed a pIC50 of 5.40. Further, in [2], the “Oxo/MCC Ratio” value came out at 47 and the pIC50 is 7.07.

For the compound `C[N+](C)(C)CC#CCN1CCCC1=O` [^3 H-Oxo, ^3 H-Oxotremorine-M], the pKd was 8.74 in [3] (high affinity site); 7.70 in [3] (medium affinity site); 5.52 in assay [3] (third (lowest affinity) site, not determined under present conditions).

As for `CNC1(C)C2CCC(C2)C1(C)C` (centres unmarked) [mecamylamine], in the assay on cognitive function, the cognitive impairment entry was “cause cognitive impairment in an age related way”.

Regarding `CN1CCCC1c1cccnc1` (centres unmarked) [nicotine], the attention and memory entry with attention and memory [4] is “improved attention and memory in healthy humans”; in the assay on attention and memory [5], “improved attention and memory”. The “effects in Tourette's syndrome” value with Tourette's syndrome is listed as “beneficial effects in Tourette's syndrome”. Besides, the “stimulation of dopamine release” value in the assay with dopamine release is “stimulates dopamine release in the nucleus accumbens more potently than in striatum”. The “potentiation of dopaminergic effects” value with dopaminergic effects is reported as “potentiate dopaminergic effects in various behavioral models”. Besides, the “reversal of inactivation of prefrontal neurons” value with prefrontal neurons is recorded as “nicotinic reversal of inactivation of prefrontal neurons”. Also, in the assay on substantia nigra, the “protection against cell loss in the substantia nigra” value is recorded as “may protect against cell loss in the substantia nigra”.

Source of the values: US5994373A, “Substituted azacyclic compounds” (Novo Nordisk A/S Novo Alle DK 2880, priority 1995, dated 1999).
